From PubChem BioAssay (NCI)
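Cells were grown in 96-well plates and exposed to each compound for 48 hours at five concentrations; endpoints were interpolated linearly between bracketing concentrations, or set to the highest concentration if not reached. GI50 marks 50% less growth. TGI denotes the concentration required for complete inhibition of growth.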

Key:
Test in all cases: DTP human tumour cell line panel, 48 h
[1] = test system: MOLT-4 leukemia
[2] = test system: K-562 leukemia
[3] = test system: OVCAR-8 ovarian
[4] = test system: SK-MEL-5 melanoma
[5] = test system: TK-10 renal
[6] = test system: COLO 205 colon
[7] = test system: SK-MEL-28 melanoma
[8] = test system: KM12 colon
[9] = test system: M14 melanoma
[10] = test system: SF-539 CNS
[11] = test system: NCI-H23 lung
[12] = test system: DU-145 prostate
[13] = test system: OVCAR-3 ovarian
[14] = test system: HOP-62 NSCLC
[15] = test system: SW-620 colon
[16] = test system: HT29 colon
[17] = test system: HOP-92 NSCLC
[18] = test system: A549 NSCLC
[19] = test system: CAKI-1 renal
[20] = test system: A498 renal
[21] = test system: SK-MEL-2 melanoma
[22] = test system: EKVX NSCLC
[23] = test system: 786-0 renal
[24] = test system: SNB-75 CNS
[25] = test system: MDA-MB-231 breast
[26] = test system: OVCAR-5 ovarian
[27] = test system: RPMI-8226 leukemia
[28] = test system: HL-60(TB) leukemia
[29] = test system: ACHN renal
[30] = test system: NCI-H226 lung
[31] = test system: PC-3 prostate
[32] = test system: NCI-H460 lung
[33] = test system: MCF7 breast
[34] = test system: UACC-62 melanoma
[35] = test system: UO-31 renal
[36] = test system: RXF 393 renal
[37] = test system: NCI-H522 lung
[38] = test system: HCC-2998 colon
[39] = test system: HCT-15 colon
[40] = test system: U251 CNS
[41] = test system: BT-549 breast
[42] = test system: UACC-257 melanoma
[43] = test system: MALME-3M melanoma
[44] = test system: SF-295 CNS
[45] = test system: OVCAR-4 ovarian
[46] = test system: HS 578T breast
[47] = test system: NCI/ADR-RES ovarian
[48] = test system: SK-OV-3 ovarian
[49] = test system: CCRF-CEM leukemia
[50] = test system: MDA-MB-435
[51] = test system: IGROV1 ovarian
[52] = test system: HCT-116 colon
[53] = test system: SN12C renal
[54] = test system: SF-268 CNS
[55] = test system: SNB-19 CNS
[56] = test system: SR leukemia
[57] = test system: LOX IMVI melanoma

C[C@]12CCc3sc(Nc4ccc(F)cc4F)nc3C1=CC[C@@H]1[C@@H]2CC[C@]2(C)C(=O)CC[C@@H]12
GI50 [1]: 2.44 µM | TGI [1]: > 100 µM | GI50 [2]: 2.43 µM | TGI [2]: > 100 µM | GI50 [3]: 2.96 µM | TGI [3]: > 100 µM

O=C(Nc1ccc(N2CCNCC2)cn1)c1[nH]ncc1Nc1ncnc2sccc12
GI50 [4]: 1.71 µM | TGI [4]: 3.26 µM | GI50 [5]: 3.62 µM | TGI [5]: 14.8 µM | GI50 [6]: 1.72 µM | TGI [6]: 3.88 µM | GI50 [7]: 1.95 µM | TGI [7]: 3.83 µM | GI50 [8]: 3.31 µM | TGI [8]: 11.5 µM | GI50 [9]: 1.86 µM | TGI [9]: 3.65 µM | GI50 [10]: 1.69 µM | TGI [10]: 3.39 µM | GI50 [11]: 2.02 µM | TGI [11]: 4.75 µM | GI50 [12]: 3.57 µM | TGI [12]: 12.2 µM | GI50 [13]: 2.02 µM | TGI [13]: 4.38 µM | GI50 [1]: 1.99 µM | TGI [1]: 7.64 µM | GI50 [14]: 2.99 µM | TGI [14]: 14.7 µM | GI50 [15]: 1.54 µM | TGI [15]: 3.19 µM | GI50 [16]: 1.91 µM | TGI [16]: 3.97 µM | GI50 [17]: 1.76 µM | TGI [17]: 5.65 µM | GI50 [18]: 1.66 µM | TGI [18]: 3.45 µM | GI50 [19]: 3.89 µM | TGI [19]: > 100 µM | GI50 [20]: 13.4 µM | TGI [20]: 31.5 µM | GI50 [21]: 7.72 µM | TGI [21]: 25.9 µM | GI50 [22]: 2.91 µM | TGI [22]: 13.5 µM | GI50 [23]: 1.62 µM | TGI [23]: 3.23 µM | GI50 [24]: 4.89 µM | TGI [24]: 21.2 µM | GI50 [25]: 1.68 µM | TGI [25]: 3.36 µM | GI50 [26]: 2.08 µM | TGI [26]: 5.19 µM | GI50 [27]: 2.32 µM | TGI [27]: 6.71 µM | GI50 [28]: 2.99 µM | TGI [28]: 22.6 µM | GI50 [29]: 2.17 µM | TGI [29]: 5.33 µM | GI50 [30]: 2.62 µM | TGI [30]: 9.05 µM | GI50 [31]: 1.59 µM | TGI [31]: 3.65 µM | GI50 [3]: 1.96 µM | TGI [3]: 4.02 µM | GI50 [32]: 1.73 µM | TGI [32]: 3.57 µM | GI50 [33]: 1.71 µM | TGI [33]: 4.17 µM | GI50 [34]: 2.6 µM | TGI [34]: 7.33 µM | GI50 [35]: 14.4 µM | TGI [35]: 32 µM | GI50 [36]: 3.32 µM | TGI [36]: 18.8 µM | GI50 [37]: 1.87 µM | TGI [37]: 4.36 µM | GI50 [38]: 12.7 µM | TGI [38]: 32.1 µM | GI50 [39]: 8.3 µM | TGI [39]: > 100 µM | GI50 [40]: 1.62 µM | TGI [40]: 3.35 µM | GI50 [41]: 1.83 µM | TGI [41]: 4.13 µM | GI50 [42]: 16.4 µM | TGI [42]: 36.7 µM | GI50 [43]: 1.43 µM | TGI [43]: 3.19 µM | GI50 [44]: 11.9 µM | TGI [44]: 28.9 µM | GI50 [45]: 1.69 µM | TGI [45]: 3.63 µM | GI50 [46]: 2.86 µM | TGI [46]: 14.2 µM | GI50 [47]: > 100 µM | TGI [47]: > 100 µM | GI50 [48]: 10.6 µM | TGI [48]: 25.7 µM | GI50 [49]: 1.25 µM | TGI [49]: 6.97 µM | GI50 [50]: 1.59 µM | TGI [50]: 3.12 µM | GI50 [51]: 4.27 µM | TGI [51]: 24.6 µM | GI50 [52]: 1.15 µM | TGI [52]: 3.09 µM | GI50 [53]: 4.27 µM | TGI [53]: 18.8 µM

COc1c(N2CCN(CN3C(=O)C(=O)c4ccccc43)C(C)C2)c(F)cc2c(=O)c(C(=O)O)cn(C3CC3)c12 (configuration not stated)
GI50 [4]: 35.3 µM | TGI [4]: > 100 µM | GI50 [5]: 6.85 µM | TGI [5]: 68.7 µM | GI50 [6]: 66.5 µM | TGI [6]: > 100 µM | GI50 [7]: > 100 µM | TGI [7]: > 100 µM | GI50 [8]: 76.2 µM | TGI [8]: > 100 µM | GI50 [9]: > 100 µM | TGI [9]: > 100 µM | GI50 [10]: > 100 µM | TGI [10]: > 100 µM | GI50 [11]: > 100 µM | TGI [11]: > 100 µM | GI50 [54]: 46 µM | TGI [54]: > 100 µM | GI50 [12]: 49.9 µM | TGI [12]: > 100 µM | GI50 [13]: 98.7 µM | TGI [13]: > 100 µM | GI50 [1]: 36.8 µM | TGI [1]: > 100 µM | GI50 [15]: 33.5 µM | TGI [15]: > 100 µM | GI50 [16]: 47.3 µM | TGI [16]: > 100 µM | GI50 [18]: > 100 µM | TGI [18]: > 100 µM | GI50 [19]: > 100 µM | TGI [19]: > 100 µM | GI50 [20]: 33.6 µM | TGI [20]: > 100 µM | GI50 [55]: > 100 µM | TGI [55]: > 100 µM | GI50 [21]: > 100 µM | TGI [21]: > 100 µM | GI50 [22]: > 100 µM | TGI [22]: > 100 µM | GI50 [23]: > 100 µM | TGI [23]: > 100 µM | GI50 [24]: > 100 µM | TGI [24]: > 100 µM | GI50 [25]: 53.5 µM | TGI [25]: > 100 µM | GI50 [26]: 13.6 µM | TGI [26]: 99.4 µM | GI50 [27]: 78.7 µM | TGI [27]: > 100 µM | GI50 [28]: > 100 µM | TGI [28]: > 100 µM | GI50 [29]: > 100 µM | TGI [29]: > 100 µM | GI50 [30]: > 100 µM | TGI [30]: > 100 µM | GI50 [31]: > 100 µM | TGI [31]: > 100 µM | GI50 [2]: 47 µM | TGI [2]: > 100 µM | GI50 [3]: > 100 µM | TGI [3]: > 100 µM | GI50 [32]: 43.4 µM | TGI [32]: > 100 µM | GI50 [33]: 33.8 µM | TGI [33]: > 100 µM | GI50 [34]: 47.5 µM | TGI [34]: > 100 µM | GI50 [35]: > 100 µM | TGI [35]: > 100 µM | GI50 [36]: > 100 µM | TGI [36]: > 100 µM | GI50 [37]: > 100 µM | TGI [37]: > 100 µM | GI50 [39]: 55.8 µM | TGI [39]: > 100 µM | GI50 [40]: > 100 µM | TGI [40]: > 100 µM | GI50 [41]: > 100 µM | TGI [41]: > 100 µM | GI50 [42]: > 100 µM | TGI [42]: > 100 µM | GI50 [44]: > 100 µM | TGI [44]: > 100 µM | GI50 [56]: 32.1 µM | TGI [56]: > 100 µM | GI50 [45]: > 100 µM | TGI [45]: > 100 µM | GI50 [46]: 91.2 µM | TGI [46]: > 100 µM | GI50 [47]: > 100 µM | TGI [47]: > 100 µM | GI50 [50]: 82.3 µM | TGI [50]: > 100 µM | GI50 [51]: > 100 µM | TGI [51]: > 100 µM | GI50 [52]: 44.9 µM | TGI [52]: > 100 µM | GI50 [57]: 71.2 µM | TGI [57]: > 100 µM | GI50 [53]: 47.3 µM | TGI [53]: > 100 µM
